Measurements as given in US10508104B2, “6-hydroxy-5-(phenyl/heteroarylsulfonyl)pyrimidin-4(1H)-one as APJ agonists” (Bristol-Myers Squibb Company, priority 2016, dated 2019).

What follows are compounds tested against human APJ receptor (Homo sapiens (Human), UniProt P35414) (assay: Intracellular cAMP accumulation assay (APJ hcAMP, HTRF)). Details: HEK293 cells stably expressing human APJ receptor; inhibition of forskolin-mediated cAMP production; read-out: Human APJ cAMP EC50 Potency range.
Format: cell-based
Summary of the method: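 HEK293 cells stably expressing human APJ, 5,000 per well, incubated 30 min at rt with compound, […] and 2 μM forskolin. cAMP measured by HTRF against a cAMP standard curve as inhibition of forskolin-driven production. EC50 from variable-slope sigmoidal fit.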

human APJ receptor, sequence (P35414 whole entry): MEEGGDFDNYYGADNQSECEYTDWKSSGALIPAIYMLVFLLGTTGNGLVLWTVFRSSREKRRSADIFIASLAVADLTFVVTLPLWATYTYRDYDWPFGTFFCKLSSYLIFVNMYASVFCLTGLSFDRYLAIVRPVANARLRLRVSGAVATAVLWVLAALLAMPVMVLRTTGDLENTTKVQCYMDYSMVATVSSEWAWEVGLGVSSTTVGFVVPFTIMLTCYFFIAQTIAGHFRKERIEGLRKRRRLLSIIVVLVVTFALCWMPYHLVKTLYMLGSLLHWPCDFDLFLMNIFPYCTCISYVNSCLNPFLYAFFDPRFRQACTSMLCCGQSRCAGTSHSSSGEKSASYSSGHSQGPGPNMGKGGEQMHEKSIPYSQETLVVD

EC50, 0.01 to 10 nM:
COC[C@@H](c1cccc(C#N)c1)n1c(COC(C)C)nc(=O)c(S(=O)(=O)c2ccc(-c3ccc(F)nc3C)cc2)c1O [Example 389, 3-[(1R)-1-{5-[4-(6-fluoro-2-methylpyridin-3-yl)benzenesulfonyl]-6-hydroxy-4-oxo-2-[(propan-2-yloxy)methyl]-1,4-dihydropyrimidin-1-yl}-2-methoxyethyl]benzonitrile]
COC[C@@H](c1cccc(C#N)c1)n1c(COC(C)C)nc(=O)c(S(=O)(=O)c2ccc(-c3cccnc3C)cc2)c1O [Example 390, 3-[(1R)-1-{6-hydroxy-5-[4-(2-methylpyridin-3-yl)benzenesulfonyl]-4-oxo-2-[(propan-2-yloxy)methyl]-1,4-dihydropyrimidin-1-yl}-2-methoxyethyl]benzonitrile]
COC[C@@H](c1cc(F)cc(F)c1)n1c(COC(C)C)nc(=O)c(S(=O)(=O)c2ccc(-c3cncc(C#N)c3)cc2)c1O [Example 391, 5-[4-({1-[(1R)-1-(3,5-difluorophenyl)-2-methoxyethyl]-6-hydroxy-4-oxo-2-[(propan-2-yloxy)methyl]-1,4-dihydropyrimidin-5-yl}sulfonyl)phenyl] pyridine-3-carbonitrile]
COC[C@@H](c1cc(F)cc(F)c1)n1c(COC(C)C)nc(=O)c(S(=O)(=O)c2ccc(-c3ccccc3C(N)=O)cc2)c1O [Example 392, 4′-({1-[(1R)-1-(3,5-difluorophenyl)-2-methoxyethyl]-6-hydroxy-4-oxo-2-[(propan-2-yloxy)methyl]-1,4-dihydropyrimidin-5-yl}sulfonyl)-[1,1′-biphenyl]-2-carboxamide]
COC[C@@H](c1cccc(C#N)c1)n1c(COC(C)C)nc(=O)c(S(=O)(=O)c2ccc(-c3cn(C)nc3C)cc2)c1O [Example 393, 3-[(1R)-1-{5-[4-(1,3-dimethyl-1H-pyrazol-4-yl)benzenesulfonyl]-6-hydroxy-4-oxo-2-[(propan-2-yloxy)methyl]-1,4-dihydropyrimidin-1-yl}-2-methoxyethyl]benzonitrile]
COC[C@@H](c1cccc(C#N)c1)n1c(COC(C)C)nc(=O)c(S(=O)(=O)c2ccc(-c3c[nH]nc3C)cc2)c1O [Example 394, 3-[(1R)-1-{6-hydroxy-5-[4-(3-methyl-1H-pyrazol-4-yl)benzenesulfonyl]-4-oxo-2-[(propan-2-yloxy)methyl]-1,4-dihydropyrimidin-1-yl}-2-methoxyethyl]benzonitrile]
COC[C@@H](c1cccc(C#N)c1)n1c(COC(C)C)nc(=O)c(S(=O)(=O)c2ccc(-c3ccnc(F)c3C)cc2)c1O [Example 395, 3-[(1R)-1-{5-[4-(2-fluoro-3-methylpyridin-4-yl)benzenesulfonyl]-6-hydroxy-4-oxo-2-[(propan-2-yloxy)methyl]-1,4-dihydropyrimidin-1-yl}-2-methoxyethyl]benzonitrile]
COC[C@@H](c1cc(F)cc(F)c1)n1c(COC(C)C)nc(=O)c(S(=O)(=O)c2ccc(-c3cn(C)nc3C)cc2)c1O [Example 396, 1-[(1R)-1-(3,5-difluorophenyl)-2-methoxyethyl]-5-[4-(1,3-dimethyl-1H-pyrazol-4-yl)benzenesulfonyl]-6-hydroxy-2-[(propan-2-yloxy)methyl]-1,4-dihydropyrimidin-4-one]
COC[C@@H](c1cc(F)cc(F)c1)n1c(COC(C)C)nc(=O)c(S(=O)(=O)c2ccc(-c3cnn(C)c3C)cc2)c1O [Example 397, 1-[(1R)-1-(3,5-difluorophenyl)-2-methoxyethyl]-5-[4-(1,5-dimethyl-1H-pyrazol-4-yl)benzenesulfonyl]-6-hydroxy-2-[(propan-2-yloxy)methyl]-1,4-dihydropyrimidin-4-one]
COC[C@@H](c1cc(F)cc(F)c1)n1c(COC(C)C)nc(=O)c(S(=O)(=O)c2ccc(-c3ccncc3C#N)cc2)c1O [Example 398, 4-[4-({1-[(1R)-1-(3,5-difluorophenyl)-2-methoxyethyl]-6-hydroxy-4-oxo-2-[(propan-2-yIoxy)methyl]-1,4-dihydropyrimidin-5-yl}sulfonyl)phenyl] pyridine-3-carbonitrile]
COC[C@@H](c1cccc(C#N)c1)n1c(COC(C)C)nc(=O)c(S(=O)(=O)c2ccc(-c3ccccc3C(N)=O)cc2)c1O [Example 399, 4′-({1-[(1R)-1-(3-cyanophenyl)-2-methoxyethyl]-6-hydroxy-4-oxo-2-[(propan-2-yloxy)methyl]-1,4-dihydropyrimidin-5-yl}sulfonyl)-[1,1′-biphenyl]-2-carboxamide]
CC[C@@H](c1cccc(C#N)c1)n1c(COC(C)C)nc(=O)c(S(=O)(=O)c2ccc(-c3ccccc3C(N)=O)cc2)c1O [Example 400, 4′-({1-[(1S)-1-(3-cyanophenyl)propyl]-6-hydroxy-4-oxo-2-[(propan-2-yloxy)methyl]-1,4-dihydropyrimidin-5-yl}sulfonyl)-[1,1′-biphenyl]-2-carboxamide]
CCOCc1nc(=O)c(S(=O)(=O)c2ccc(-c3ccccc3C(N)=O)c(F)c2)c(O)n1C(COC)c1cccc(F)c1 (stereo not drawn) [Example 401, 4′-{[2-(ethoxymethyl)-1-[1-(3-fluorophenyl)-2-methoxyethyl]-6-hydroxy-4-oxo-1,4-dihydropyrimidin-5-yl]sulfonyl}-2′-fluoro-[1,1′-biphenyl]-2-carboxamide]
COC[C@@H](c1ccccc1)n1c(COC(C)C)nc(=O)c(S(=O)(=O)c2ccc(-c3ccccc3C(N)=O)c(F)c2)c1O [Example 402, 2′-fluoro-4′-({6-hydroxy-1-[(1R)-2-methoxy-1-phenylethyl]-4-oxo-2-[(propan-2-yloxy)methyl]-1,4-dihydropyrimidin-5-yl}sulfonyl)-[1,1′-biphenyl]-2-carboxamide]
CC[C@@H](c1cccc(C#N)c1)n1c(COC(C)C)nc(=O)c(S(=O)(=O)c2ccc(-c3ccncc3C#N)cc2)c1O [Example 403, 4-[4-({1-[(1S)-1-(3-cyanophenyl)propyl]-6-hydroxy-4-oxo-2-[(propan-2-yloxy)methyl]-1,4-dihydropyrimidin-5-yl}sulfonyl)phenyl]pyridine-3-carbonitrile]
COC[C@@H](c1cccc(C#N)c1)n1c(COC(C)C)nc(=O)c(S(=O)(=O)c2ccc(-c3ccncc3C#N)cc2)c1O [Example 404, 4-[4-({1-[(1R)-1-(3-cyanophenyl)-2-methoxyethyl]-6-hydroxy-4-oxo-2-[(propan-2-yloxy)methyl]-1,4-dihydropyrimidin-5-yl}sulfonyl)phenyl] pyridine-3-carbonitrile]
COC[C@@H](c1ccccc1)n1c(COC(C)C)nc(=O)c(S(=O)(=O)c2ccc(-c3ccncc3C#N)c(F)c2)c1O [Example 405, 4-[2-fluoro-4-({6-hydroxy-1-[(1R)-2-methoxy-1-phenylethyl]-4-oxo-2-[(propan-2-yloxy)methyl]-1,4-dihydropyrimidin-5-yl}sulfonyl)phenyl]pyridine-3-carbonitrile]
COC[C@@H](c1ccccc1)n1c(COC(C)C)nc(=O)c(S(=O)(=O)c2ccc(-c3ccncc3C#N)cc2)c1O [Example 406, 4-[4-({6-hydroxy-1-[(1R)-2-methoxy-1-phenylethyl]-4-oxo-2-[(propan-2-yloxy)methyl]-1,4-dihydropyrimidin-5-yl}sulfonyl)phenyl]pyridine-3-carbonitrile]
COC[C@@H](c1cc(F)cc(F)c1)n1c(COC(C)C)nc(=O)c(S(=O)(=O)c2ccc(-c3cnccc3C#N)cc2)c1O [Example 407, 3-[4-({1-[(1R)-1-(3,5-difluorophenyl)-2-methoxyethyl]-6-hydroxy-4-oxo-2-[(propan-2-yloxy)methyl]-1,4-dihydropyrimidin-5-yl}sulfonyl)phenyl] pyridine-4-carbonitrile]
COC[C@@H](c1cc(F)cc(F)c1)n1c(COC(C)C)nc(=O)c(S(=O)(=O)c2ccc(-c3cccn(C)c3=O)cc2)c1O [Example 408, 1-[(1R)-1-(3,5-difluorophenyl)-2-methoxyethyl]-6-hydroxy-5-[4-(1-methyl-2-oxo-1,2-dihydropyridin-3-yl)benzenesulfonyl]-2-[(propan-2-yloxy)methyl]-1,4-dihydropyrimidin-4-one]
COC[C@@H](c1ccccc1)n1c(COC(C)C)nc(=O)c(S(=O)(=O)c2ccc(-c3cnccc3C#N)c(F)c2)c1O [Example 409, 3-[2-fluoro-4-({6-hydroxy-1-[(1R)-2-methoxy-1-phenylethyl]-4-oxo-2-[(propan-2-yloxy)methyl]-1,4-dihydropyrimidin-5-yl}sulfonyl)phenyl]pyridine-4-carbonitrile]
CC[C@@H](c1cccc(C#N)c1)n1c(COC(C)C)nc(=O)c(S(=O)(=O)c2ccc(-c3cnccc3C#N)cc2)c1O [Example 410, 3-[4-({1-[(1S)-1-(3-cyanophenyl)propyl]-6-hydroxy-4-oxo-2-[(propan-2-yloxy)methyl]-1,4-dihydropyrimidin-5-yl}sulfonyl)phenyl]pyridine-4-carbonitrile]
COC[C@@H](c1cccc(C#N)c1)n1c(COC(C)C)nc(=O)c(S(=O)(=O)c2ccc(-c3cnccc3C#N)cc2)c1O [Example 411, 3-[4-({1-[(1R)-1-(3-cyanophenyl)-2-methoxyethyl]-6-hydroxy-4-oxo-2-[(propan-2-yloxy)methyl]-1,4-dihydropyrimidin-5-yl}sulfonyl)phenyl]pyridine-4-carbonitrile]
CCCCc1nc(=O)c(S(=O)(=O)c2ccc(-c3ccnc(F)c3C)cc2)c(O)n1[C@@H](COC)c1cccc(C(N)=O)c1 [Example 412, 3-[(1R)-1-{2-butyl-5-[4-(2-fluoro-3-methylpyridin-4-yl)benzenesulfonyl]-6-hydroxy-4-oxo-1,4-dihydropyrimidin-1-yl}-2-methoxyethyl]benzamide]
